Results: paper PMC3351436, “Direct and Allosteric Inhibition of the FGF2/HSPGs/FGFR1 Ternary Complex Formation by an Antiangiogenic, Thrombospondin-1-Mimic Small Molecule” (PLoS ONE, 2012)
Each block holds one compound with its values, some of them ahead of it.

Columns and labels:
[1] = target: T1, FGF2/heparin interaction (Homo sapiens, UniProt P09038); assay: SPR competition: FGF2 binding to surface-immobilized heparin; details: FGF2 150 nM injected over immobilized heparin, read-out: IC50, prevention of FGF2/heparin interaction
T1 construct: made in house
T1 sequence (P09038 134-288): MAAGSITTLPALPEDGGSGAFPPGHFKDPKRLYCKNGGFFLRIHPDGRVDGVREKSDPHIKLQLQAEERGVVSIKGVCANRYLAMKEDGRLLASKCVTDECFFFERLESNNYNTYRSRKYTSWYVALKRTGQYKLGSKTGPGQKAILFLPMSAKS
Description: SPR measurements were performed on a BIAcore X instrument (GE-Healthcare, WI). Heparin was immobilized onto the SPR chip as described [30], allowing the immobilization of 80 resonance units (RU) (6.0 fmol/mm^2).
Surface plasmon resonance (SPR) analysis. SPR measurements were performed on a BIAcore X instrument (GE-Healthcare, WI). Heparin was immobilized onto the SPR chip as already described [27]. Briefly, a CMD50L sensorchip (Xantec Bioanalytics, Dusseldorf, Germany) activated with 50 µl of a mixture containing 0.2 M EDC and 0.5 M NHS was coated with streptavidin. Heparin was biotinylated at its reducing end and immobilized onto the streptavidin-coated sensorchip, allowing the immobilization of 80 resonance units (RU) (6.0 fmol/mm^2 of heparin). A streptavidin-coated sensorchip was used as reference and for blank subtraction. […] After every run, the sensorchip was regenerated by injection of HBS containing 2.0 M NaCl.

[2] = target: T2, FGFR1 on A745 CHO flg-1A cells (Homo sapiens, UniProt P09038); assay: Binding of Eu-FGF2 to FGFR1-transfected A745 CHO flg-1A cells (HSPG-deficient); type: cell-based, murine
T2 construct: expressed in transfected cells; host or cells: A745 CHO (HSPG-deficient), clone flg-1A
T2 sequence (P09038 134-288): as above
Description: (§1) It was possible to discriminate between FGF2 bound to HSPGs low affinity receptors and FGF2 bound to the high affinity FGFR1, following a previously reported procedure.
(§2) Binding to low and high affinity receptors was analyzed according to [31].
Cell cultures. Wild-type CHO-K1 cells and the derived HSPG-deficient A745 CHO cell mutants, kindly provided by J. D. Esko (La Jolla, CA), were grown in Ham's F-12 medium supplemented with 10% fetal calf serum (FCS). […] Bovine aortic endothelial cells (BAEC) [30]were cultured in DMEM supplemented with 10% FCS.
(§3) Binding of FGF2 to cells. Europium-labeled FGF2 (Eu-FGF2) was prepared as previously described. Endothelial cells (BAEC), naturally expressing both HSPGs and FGFR1, CHO-K1 and FGFR1-expressing A745 CHO cells were used. Subconfluent cell cultures in 96-well plates were washed and incubated for 30 min at 277K in serum-free DMEM with 0.15% gelatin and 25mM HEPES (DMEM-gelatin). […] The plate was incubated for 2 h at 277K. Wells were washed with cold DMEM-gelatin to remove unbound FGF2, and the amount of total bound FGF2 was detected by adding DELFIA^? Enhancement Solution (100 µl, PerkinElmer), and measuring time resolved fluorescence using a Victor^3 multilabel plate reader (PerkinElmer), as described.

[3] = target: T3, FGF2/FGFR1/HSPGs complex (Homo sapiens, UniProt P09038); assay: FGF2-mediated cell-cell adhesion assay (A745 CHO flg-1A cells on CHO-K1 monolayer); type: cell-based; details: FGF2 1.66 nM, 2 h incubation, serum-free medium; read-out: ID50, inhibition of FGF2-mediated cell-cell adhesion
T3 construct: expressed in transfected cells; host or cells: A745 CHO flg-1A cells on fixed CHO-K1 monolayer
T3 sequence (P09038 134-288, one chain of several): as the sequence (P09038 134-288) above
Description: (§4) Each point is the mean ± SEM of 3 separate experiments. […] C) Binding of Eu-FGF2 to endothelial cells (BAEC). […] After 2 h of incubation at 298K, the cells bound to the monolayer were counted under an inverted microscope. Each point is the mean ± SEM of 3 separate experiments performed in triplicate. In B and C, black and white arrows indicate the inhibitions obtained with heparin (0.1 µg/ml) and unlabeled FGF2 (1.5 µg/ml) used as reference competitor of HSPGs and FGFR1 binding, respectively
To exert its pro-angiogenic activity, FGF2 needs to set up a productive, ternary complex with HSPGs and FGFR1 [32].
Data are mean bound cells in three random microscopic fields.
FGF2-mediated cell-cell adhesion assay: This assay was performed as described previously, with minor modifications. Briefly, monolayers of wild-type CHO-K1 cells were washed with PBS and fixed with 3% glutaraldehyde in PBS for 2 h at 277K followed by washing with 0.1 M glycine, and PBS. […] After 2 h of incubation at 310K, unattached cells were removed by PBS washing and A745 CHO flg-1A cells bound to the CHO-K1 monolayer were counted under an inverted microscope at ×125 magnification. Data are expressed as the mean of the cell counts of three microscopic fields chosen at random. All experiments were performed in triplicate and repeated twice.

[4] = target: T4, high affinity FGFR1 on BAEC (Homo sapiens, UniProt P09038); assay: Binding of Eu-FGF2 to endothelial cells (BAEC), high affinity receptors; type: cell-based, bovine; details: Eu-FGF2 10 ng/ml, after 2 M NaCl wash
T4 construct: endogenous in cells; host or cells: BAEC
T4 sequence (P09038 134-288): as above
Description: as §1, §2, §3

[5] = target: T5, HSPGs low affinity receptors on BAEC (Homo sapiens, UniProt P09038); assay: Binding of Eu-FGF2 to endothelial cells (BAEC), low affinity receptors; type: cell-based, bovine; details: Eu-FGF2 10 ng/ml
T5 construct: endogenous in cells; host or cells: BAEC
T5 sequence (P09038 134-288): as above
Description: as §1, §2, §3

[6] = target: T6, FGF2/FGFR1 interaction (Homo sapiens, UniProt P09038); assay: SPR competition: FGF2 binding to substrate-immobilized FGFR1; details: FGF2 150 nM injected over immobilized FGFR1, read-out: ID50, prevention of FGF2/FGFR1 interaction
T6 construct: purchased ReliaTech
T6 sequence (P09038 134-288): as above
Description: as §4
SPR measurements were performed on a BIAcore X instrument (GE-Healthcare, WI). Heparin was immobilized onto the SPR chip as described, allowing the immobilization of 80 resonance units (RU) (6.0 fmol/mm^2). Immobilization of FGFR (13,800 RU, 42.0 fmol/mm^2), is described in the Supporting Information S1. Sensorchips coated with streptavidin or FGF-unrelated noggin protein were used for blank subtraction (respectively for heparin and FGFR-1).
Surface plasmon resonance (SPR) analysis. SPR measurements were performed on a BIAcore X instrument (GE-Healthcare, WI). Heparin was immobilized onto the SPR chip as already described. Briefly, a CMD50L sensorchip (Xantec Bioanalytics, Dusseldorf, Germany) activated with 50 µl of a mixture containing 0.2 M EDC and 0.5 M NHS was coated with streptavidin. […]

[7] = tested on: endothelial cells; parameters: method as in PMID 20056600; details: cited from earlier work
[8] = tested on: chicken chorioallantoic membrane; parameters: method as in PMID 20056600; details: chicken chorioallantoic membrane assay; cited from earlier work
[9] = tested on: endothelial cells; parameters: method as in PMID 20056600; details: cited from earlier work; remark: listed apart in the source
[10] = target: T7, HSPGs on CHO-K1 cells (Homo sapiens, UniProt P09038); assay: Binding of Eu-FGF2 to wild-type CHO-K1 cells (expressing HSPGs but not FGFR1); type: cell-based
T7 construct: endogenous in cells; host or cells: CHO-K1
T7 sequence (P09038 134-288): as above
Description: as §1, §2, §3

[11] = target: T8, FGF2 (Homo sapiens, UniProt P09038, A136E/C211S/C229S/S138E); assay: NMR 15N-1H HSQC titration of sm27 into FGF2; type: binding; details: 0:1 to 4:1 sm27:FGF2, pH 5.5, 298 K
T8 construct: purchased ASLA (Riga, Latvia)
T8 sequence (P09038 134-288 A136E/S138E/C211S/C229S): as the sequence (P09038 134-288) above, with A3E, S5E, C78S, C96S counted along it
Description: All NMR data were collected on a Bruker DMX 500 MHz spectrometer at 298 K.
NMR samples contained 0.57 mM ^15N-labeled FGF2, dissolved in a buffer containing 50 mM potassium phosphate, 2 mM NaN3, and 10 mM deuterated DTT in 90% H2O/10% D2O, pH 5.5. […] At molar ratios higher than 1:1, partial sample precipitation was observed, till full sample precipitation at nominal 4:1 ratio. […] Due to the precipitation it was not possible to reach the plateau of the titration and to estimate the real stoichiometric ratio at each step.

Compound: O=C(Nc1ccc2cc(S(=O)(=O)O)cc(O)c2c1)Nc1ccc2cc(S(=O)(=O)O)cc(O)c2c1 [sm27, 4-hydroxy-6-((((8-hydroxy-6-sulfo-2-naphthyl)amino)carbonyl)amino)-2-naphthalenesulfonic acid]
IC50 [1]: 3.5 µM
Effect on Eu-FGF2 binding to FGFR1 ([2]; A745 CHO flg-1A cells, Eu-FGF2 10 ng/ml): inhibited
IC50 [3]: 1 µM
Effect on FGF2 binding to high affinity FGFR1 [4]: inhibited
Effect on FGF2 binding to HSPGs low affinity receptors [5]: inhibited
IC50 [6]: 4 µM
Effect on FGF2-induced endothelial cell proliferation [7]: inhibited
Effect on FGF2-induced angiogenesis [8]: inhibited
Effect on binding of FGF2 to endothelial cells [9]: prevented
Effect on Eu-FGF2 binding to HSPGs ([10]; Eu-FGF2 10 ng/ml): inhibited
Binding to FGF2 judged from the NMR titration (exchange regime) [11]: weak binding

Effect of reference competitor on Eu-FGF2 binding to HSPGs ([10]; heparin 0.1 µg/ml): inhibitory activity
Compound: heparin [reference compound]

Effect of reference competitor on Eu-FGF2 binding to FGFR1 ([2]; FGFR1-CHO cells, unlabeled FGF2 1.5 µg/ml): inhibitory activity
Compound: unlabelled FGF2: Human recombinant FGF2, unlabeled, reference competitor of FGFR1 binding [reference compound]
